Measured values taken from US9408885B2, “Combinations of therapeutic agents for treating melanoma” (VIB VZW, priority 2011, dated 2016).

Experiments:
MM011 melanoma cells = conditions: MM011, 6.25-50 μM Cisplatin or 25-200 μM Melphalan, 24 hours
Protocol: (§4) Cell viability was measured at 24 hours by CellTiter-Glo assay. Data represent the mean (±SD) of at least three biological replicates. […] Data represent the mean (±SD) of at least three biological replicates. […] Data represent the mean (±SD) of at least three biological replicates.

MM031 melanoma cells = conditions: MM031, 6.25-50 μM Cisplatin or 25-200 μM Melphalan, 24 hours
Protocol: as §4

[1] = system: p53 pathway in MM cell lines overexpressing MDM4; test: p53 tumor suppressor response (p53 and p21 protein levels) in short-term cultured melanoma cell lines; format: cell-based, human; conditions: all but one (MM87) of the cell lines overexpressing MDM4; nutlin-3 at high concentrations
Protocol: Cells, adult tissue samples, or tumors were lysed in Giordano buffer (50 mM Tris-HCl (pH 7.4); 250 mM NaCl; 0.1% Triton X-100; 5 mM EDTA) containing phosphatase and protease inhibitors (Sigma). The adult tissue samples were sonicated three times 10 sec. […] The fractionated extracts were then transferred to a PVDF membrane (iBlot® Dry Blotting System). Membranes were blocked in Tris-buffered saline, 0.2% Tween-20 (TBST) containing 5% or 10% non-fat dry milk, and subsequently incubated with the appropriate primary antibody. Membranes were washed five times with TBST and incubated with either horseradish peroxidase-conjugated horse anti-mouse or goat anti-rabbit secondary antibody (Cell Signaling). After five washes with TBST, proteins were detected by enhanced chemiluminescense “ECL Western Blotting Detection Reagents” (Amersham Biosciences) or “SuperSignal West Femto Maximum Sensitivity Substrate” (Thermo Scientific) and visualized by exposure to X-ray film (Amersham Biosciences).

[2] = system: MDM4 protein in 451-lu cells; test: MDM4 protein expression level, 451-lu; format: cell-based, human; conditions: 5 μM, 24 hours
Protocol: (§1) FIG. 4: AKT inhibitors destabilize the MDM4 protein levels in melanomas.
(§2) In the present example we applied the Akt IV inhibitor on two different melanoma cell lines (i.e., the human amelanotic melanoma cell line A375 and the metastatic 451-lu human melanoma cell line, the latter also described in D. Herlyn et al. (1990), Cancer Research 50, 2296-2302).
(§3) Cells, adult tissue samples, or tumors were lysed in Giordano buffer (50 mM Tris-HCl (pH 7.4); 250 mM NaCl; 0.1% Triton X-100; 5 mM EDTA) containing phosphatase and protease inhibitors (Sigma). The adult tissue samples were sonicated three times 10 sec. The protein concentration was determined by Bradford assay (OD 595 nm; Bio-Rad Protein Assay) and 40 μg of each sample were fractionated by SDS-PAGE (Invitrogen; NuPAGE® Novex® 4-12% Bis-Tris Gel). The fractionated extracts were then transferred to a PVDF membrane (iBlot® Dry Blotting System). Membranes were blocked in Tris-buffered saline, 0.2% Tween-20 (TBST) containing 5% or 10% non-fat dry milk, and subsequently incubated with the appropriate primary antibody. […] After five washes with TBST, proteins were detected by enhanced chemiluminescense “ECL Western Blotting Detection Reagents” (Amersham Biosciences) or “SuperSignal West Femto Maximum Sensitivity Substrate” (Thermo Scientific) and visualized by exposure to X-ray film (Amersham Biosciences). […]

[3] = system: MDM4 protein in A375 cells; test: MDM4 protein expression level, A375; format: cell-based, human; conditions: A375, 5 μM, 24 hours
Protocol: as §1, §2, §3

SMILES	growth inhibition, alkylating agent alone (MM011 melanoma cells)	growth inhibition, alkylating agent alone (MM031 melanoma cells)	p53 protein levels and p21 expression [1]	also measured
N[C@@H](Cc1ccc(N(CCCl)CCCl)cc1)C(=O)O [melphalan]	variable growth inhibition effects	variable growth inhibition effects		
N.N.[Cl][Pt][Cl] [cisplatin]	variable growth inhibition effects	variable growth inhibition effects		
COc1ccc(C2=N[C@@H](c3ccc(Cl)cc3)[C@@H](c3ccc(Cl)cc3)N2C(=O)N2CCNC(=O)C2)c(OC(C)C)c1 [nutlin-3]			increased p53 protein levels and induction of expression of p21	
COc1cccc2c1C(=O)c1c(O)c3c(c(O)c1C2=O)C[C@@](O)(C(=O)CO)C[C@@H]3O[C@H]1C[C@H](N)[C@H](O)[C@H](C)O1 [doxorubicin]			increased p53 protein levels and induction of expression of p21	
CC[n+]1c(/C=C/N(C)c2ccccc2)n(-c2ccccc2)c2ccc(-c3nc4ccccc4s3)cc21.[I-] [Akt IV inhibitor]				protein expression level of MDM4 [2]: down-regulate; protein expression level of MDM4 [3]: down-regulate
